Laboratory results reported in patent publication US20090118332A1, “Therapeutic Agents - 551” (AstraZeneca AB, priority 2006, published 2009).

Target: T1, human Fatty Acid Synthase (Homo sapiens, UniProt P49327)
T1 construct: made in house
Assay: Human FAS enzyme assay (decrease in NADPH fluorescence)
Assay type: biochemical
Conditions: % inhibition at a concentration of 100 μmolar
Summary of the method: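 In-house human FAS was preincubated with compound and NADPH for 15 min at room temperature in 0.1 M Tris pH 7.5 with EDTA, glutathione and BSA. Malonyl CoA and acetyl CoA (500 μM and 150 μM in the added mix) were then added for 60 min. IC50 came from time-zero-subtracted NADPH fluorescence (340/460 nm).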

T1 sequence (P49327 whole entry): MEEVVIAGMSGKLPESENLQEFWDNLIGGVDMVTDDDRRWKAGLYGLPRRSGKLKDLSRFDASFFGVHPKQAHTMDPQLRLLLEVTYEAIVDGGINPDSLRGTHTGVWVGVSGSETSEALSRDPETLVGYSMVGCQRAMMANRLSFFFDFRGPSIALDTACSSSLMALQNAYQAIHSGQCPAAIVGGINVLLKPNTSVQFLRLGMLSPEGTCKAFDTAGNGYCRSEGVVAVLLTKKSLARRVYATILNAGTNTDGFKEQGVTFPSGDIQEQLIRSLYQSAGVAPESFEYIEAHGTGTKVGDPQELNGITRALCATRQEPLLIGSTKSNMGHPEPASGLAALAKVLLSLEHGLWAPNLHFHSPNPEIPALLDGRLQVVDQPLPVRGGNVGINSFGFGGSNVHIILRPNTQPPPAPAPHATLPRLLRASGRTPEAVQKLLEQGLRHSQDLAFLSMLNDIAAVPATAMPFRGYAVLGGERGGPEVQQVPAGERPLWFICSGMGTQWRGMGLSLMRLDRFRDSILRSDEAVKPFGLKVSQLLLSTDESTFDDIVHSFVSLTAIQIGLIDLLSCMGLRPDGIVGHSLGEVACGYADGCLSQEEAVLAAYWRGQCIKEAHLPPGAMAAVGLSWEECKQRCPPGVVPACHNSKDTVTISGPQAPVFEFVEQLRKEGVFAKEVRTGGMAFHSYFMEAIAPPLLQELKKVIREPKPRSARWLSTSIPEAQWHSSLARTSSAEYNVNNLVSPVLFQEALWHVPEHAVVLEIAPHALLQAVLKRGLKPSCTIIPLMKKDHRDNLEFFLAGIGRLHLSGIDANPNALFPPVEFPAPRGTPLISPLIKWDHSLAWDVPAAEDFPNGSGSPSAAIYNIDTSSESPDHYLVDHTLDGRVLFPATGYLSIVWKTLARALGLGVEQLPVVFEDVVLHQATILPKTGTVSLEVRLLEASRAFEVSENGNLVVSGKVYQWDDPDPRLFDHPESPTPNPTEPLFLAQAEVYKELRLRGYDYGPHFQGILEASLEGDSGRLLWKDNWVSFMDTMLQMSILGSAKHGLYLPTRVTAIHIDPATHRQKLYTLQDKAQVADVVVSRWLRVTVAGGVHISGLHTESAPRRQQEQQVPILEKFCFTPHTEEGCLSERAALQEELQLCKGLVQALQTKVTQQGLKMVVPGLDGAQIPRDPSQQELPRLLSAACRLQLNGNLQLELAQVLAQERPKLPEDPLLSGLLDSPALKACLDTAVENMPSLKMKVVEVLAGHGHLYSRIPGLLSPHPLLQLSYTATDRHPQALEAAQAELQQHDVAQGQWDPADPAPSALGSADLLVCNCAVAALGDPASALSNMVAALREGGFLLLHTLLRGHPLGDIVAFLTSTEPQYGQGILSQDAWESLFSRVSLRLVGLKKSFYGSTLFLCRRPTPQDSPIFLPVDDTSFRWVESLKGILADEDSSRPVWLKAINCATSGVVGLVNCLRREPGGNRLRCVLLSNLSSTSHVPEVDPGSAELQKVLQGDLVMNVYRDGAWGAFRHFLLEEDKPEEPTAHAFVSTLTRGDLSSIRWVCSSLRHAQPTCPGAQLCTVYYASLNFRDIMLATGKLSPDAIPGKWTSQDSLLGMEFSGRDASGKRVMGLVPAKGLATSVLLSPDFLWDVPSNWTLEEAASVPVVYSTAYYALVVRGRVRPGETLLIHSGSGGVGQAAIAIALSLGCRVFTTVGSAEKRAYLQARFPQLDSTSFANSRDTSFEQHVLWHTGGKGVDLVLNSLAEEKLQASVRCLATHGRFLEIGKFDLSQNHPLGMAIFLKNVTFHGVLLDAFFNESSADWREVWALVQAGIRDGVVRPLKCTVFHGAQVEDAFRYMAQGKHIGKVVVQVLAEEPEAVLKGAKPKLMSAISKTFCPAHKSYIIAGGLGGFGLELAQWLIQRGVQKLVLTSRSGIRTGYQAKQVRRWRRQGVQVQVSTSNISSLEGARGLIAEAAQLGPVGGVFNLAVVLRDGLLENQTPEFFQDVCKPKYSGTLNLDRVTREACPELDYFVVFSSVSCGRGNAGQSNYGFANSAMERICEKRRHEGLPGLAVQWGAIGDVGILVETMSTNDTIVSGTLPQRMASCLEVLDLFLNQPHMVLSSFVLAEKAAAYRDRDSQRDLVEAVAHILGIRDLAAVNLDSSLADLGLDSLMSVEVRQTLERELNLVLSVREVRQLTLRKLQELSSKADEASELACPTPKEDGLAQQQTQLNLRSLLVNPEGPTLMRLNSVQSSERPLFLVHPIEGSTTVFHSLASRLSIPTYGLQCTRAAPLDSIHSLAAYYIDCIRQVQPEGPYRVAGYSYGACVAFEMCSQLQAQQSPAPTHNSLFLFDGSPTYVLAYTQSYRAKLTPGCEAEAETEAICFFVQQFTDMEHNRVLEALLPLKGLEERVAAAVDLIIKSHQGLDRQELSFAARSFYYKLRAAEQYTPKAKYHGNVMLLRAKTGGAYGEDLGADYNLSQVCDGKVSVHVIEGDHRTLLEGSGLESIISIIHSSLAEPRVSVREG

inhibition at 100 µM	Structure (SMILES)
92.1%	Cc1ccc(C(=O)N2CCC(c3ccc(C#N)cc3)CC2)cc1NC(=O)NCC1CCCO1 (stereo not shown) [Example 151, 1-[5-[4-(4-cyanophenyl)piperidine-1-carbonyl]-2-methyl-phenyl]-3-(oxolan-2-ylmethyl)urea]
95.1%	COCCNC(=O)Nc1cc(C(=O)N2CCC(c3ccc(C#N)cc3)CC2)ccc1C [Example 152, 1-[5-[4-(4-cyanophenyl)piperidine-1-carbonyl]-2-methyl-phenyl]-3-(2-methoxyethyl)urea]
88.2%	Cc1ccc(C(=O)N2CCC(c3ccc(C#N)cc3)CC2)cc1NC(=O)NCCCOC(C)C [Example 153, 1-[5-[4-(4-cyanophenyl)piperidine-1-carbonyl]-2-methyl-phenyl]-3-(3-propan-2-yloxypropyl)urea]
93%	COCCCNC(=O)Nc1cc(C(=O)N2CCC(c3ccc(C#N)cc3)CC2)ccc1C [Example 154, 1-[5-[4-(4-cyanophenyl)piperidine-1-carbonyl]-2-methyl-phenyl]-3-(3-methoxypropyl)urea]
90.1%	COCC(C)NC(=O)Nc1cc(C(=O)N2CCC(c3ccc(C#N)cc3)CC2)ccc1C (stereo not shown) [Example 155, 1-[5-[4-(4-cyanophenyl)piperidine-1-carbonyl]-2-methyl-phenyl]-3-(1-methoxypropan-2-yl)urea]
92.2%	CSCCNC(=O)Nc1cc(C(=O)N2CCC(c3ccc(C#N)cc3)CC2)ccc1C [Example 156, 1-[5-[4-(4-cyanophenyl)piperidine-1-carbonyl]-2-methyl-phenyl]-3-(2-methylsulfanylethyl)urea]
92.7%	CSCCCNC(=O)Nc1cc(C(=O)N2CCC(c3ccc(C#N)cc3)CC2)ccc1C [Example 157, 1-[5-[4-(4-cyanophenyl)piperidine-1-carbonyl]-2-methyl-phenyl]-3-(3-methylsulfanylpropyl)urea]
89.1%	CCOCCCNC(=O)Nc1cc(C(=O)N2CCC(c3ccc(C#N)cc3)CC2)ccc1C [Example 158, 3-[5-[4-(4-cyanophenyl)piperidine-1-carbonyl]-2-methyl-phenyl]-1-(3-ethoxypropyl)urea]
88%	COC(C)(C)CNC(=O)Nc1cc(C(=O)N2CCC(c3ccc(C#N)cc3)CC2)ccc1C [Example 159, 1-[5-[4-(4-cyanophenyl)piperidine-1-carbonyl]-2-methyl-phenyl]-3-(2-methoxy-2-methyl-propyl)urea]
94.9%	Cc1ccc(C(=O)N2CCC(c3ccc(C#N)cc3)CC2)cc1NC(=O)NCC1COCCO1 (stereo not shown) [Example 160, 1-[5-[4-(4-cyanophenyl)piperidine-1-carbonyl]-2-methyl-phenyl]-3-(1,4-dioxan-2-ylmethyl)urea]
93.7%	COCCOCCCNC(=O)Nc1cc(C(=O)N2CCC(c3ccc(C#N)cc3)CC2)ccc1C [Example 161, 1-[5-[4-(4-cyanophenyl)piperidine-1-carbonyl]-2-methyl-phenyl]-3-[3-(2-methoxyethoxy)propyl]urea]
84.2%	Cc1ccc(C(=O)N2CCC(c3ccc(C#N)cc3)CC2)cc1NC(=O)NC1CCOCC1 [Example 162, 1-[5-[4-(4-cyanophenyl)piperidine-1-carbonyl]-2-methyl-phenyl]-3-(oxan-4-yl)urea]
102%	Cc1ccc(C(=O)N2CCC(c3ccc(C#N)cc3)CC2)cc1NC(=O)NC1COc2ccccc2OC1 [Example 163, 1-[5-[4-(4-cyanophenyl)piperidine-1-carbonyl]-2-methyl-phenyl]-3-(2,6-dioxabicyclo[5.4.0]undeca-8,10,12-trien-4-yl)urea]
95%	CCCOCCNC(=O)Nc1cc(C(=O)N2CCC(c3ccc(C#N)cc3)CC2)ccc1C [Example 164, 3-[5-[4-(4-cyanophenyl)piperidine-1-carbonyl]-2-methyl-phenyl]-1-(2-propoxyethyl)urea]
92.4%	Cc1ccc(C(=O)N2CCC(c3ccc(C#N)cc3)CC2)cc1NC(=O)NCC1COc2ccccc2O1 (stereo not shown) [Example 165, 1-[5-[4-(4-cyanophenyl)piperidine-1-carbonyl]-2-methyl-phenyl]-3-(7,10-dioxabicyclo[4.4.0]deca-2,4,11-trien-8-ylmethyl)urea]
94.7%	Cc1ccc(C(=O)N2CCC(c3ccc(C#N)cc3)CC2)cc1NC(=O)NCC1CCCCO1 (stereo not shown) [Example 166, 1-[5-[4-(4-cyanophenyl)piperidine-1-carbonyl]-2-methyl-phenyl]-3-(oxan-2-ylmethyl)urea]
90.3%	Cc1ccc(C(=O)N2CCC(c3ccc(C#N)cc3)CC2)cc1NC(=O)NCC#N [Example 167, 3-(cyanomethyl)-1-[5-[4-(4-cyanophenyl)piperidine-1-carbonyl]-2-methyl-phenyl]urea]

inhibition at 100 µM	Structure (SMILES)
84.6%	Cc1ccc(C(=O)N2CCC(c3ccc(C#N)cc3)CC2)cc1NC(=O)NCC(F)(F)F [Example 168, 1-[5-[4-(4-cyanophenyl)piperidine-1-carbonyl]-2-methyl-phenyl]-3-(2,2,2-trifluoroethyl)urea]
95.6%	Cc1ccc(C(=O)N2CCC(c3ccc(C#N)cc3)CC2)cc1NC(=O)NC1CCS(=O)(=O)C1 (stereo not shown) [Example 169, 1-[5-[4-(4-cyanophenyl)piperidine-1-carbonyl]-2-methyl-phenyl]-3-(1,1-dioxothiolan-3-yl)urea]
94.6%	Cc1ccc(C(=O)N2CCC(c3ccc(C#N)cc3)CC2)cc1NC(=O)NCCC(=O)Nc1ccccn1 [Example 170, 3-[[5-[4-(4-cyanophenyl)piperidine-1-carbonyl]-2-methyl-phenyl]carbamoylamino]-N-pyridin-2-yl-propanamide]
96.3%	Cc1ccc(C(=O)N2CCC(c3ccc(C#N)cc3)CC2)cc1NC(=O)NCC(=O)NC(C)C [Example 171, 2-[[5-[4-(4-cyanophenyl)piperidine-1-carbonyl]-2-methyl-phenyl]carbamoylamino]-N-propan-2-yl-acetamide]
91.8%	CCCCNC(=O)NCCNC(=O)Nc1cc(C(=O)N2CCC(c3ccc(C#N)cc3)CC2)ccc1C [Example 172, 1-butyl-3-[2-[[5-[4-(4-cyanophenyl)piperidine-1-carbonyl]-2-methyl-phenyl]carbamoylamino]ethyl]urea]
95.5%	Cc1ccc(C(=O)N2CCC(c3ccc(C#N)cc3)CC2)cc1NC(=O)NCCCCCNC(=O)N1CCOCC1 [Example 173, N-[5-[[5-[4-(4-cyanophenyl)piperidine-1-carbonyl]-2-methyl-phenyl]carbamoylamino]pentyl]morpholine-4-carboxamide]
97.4%	CCCS(=O)(=O)NCCNC(=O)Nc1cc(C(=O)N2CCC(c3ccc(C#N)cc3)CC2)ccc1C [Example 174, 3-[5-[4-(4-cyanophenyl)piperidine-1-carbonyl]-2-methyl-phenyl]-1-[2-(propylsulfonylamino)ethyl]urea]
96.1%	Cc1ccc(C(=O)N2CCC(c3ccc(C#N)cc3)CC2)cc1NC(=O)NCCNC(=O)C1CCCCC1 [Example 175, N-[2-[[5-[4-(4-cyanophenyl)piperidine-1-carbonyl]-2-methyl-phenyl]carbamoylamino]ethyl]cyclohexanecarboxamide]
92.6%	Cc1ccc(C(=O)N2CCC(c3ccc(C#N)cc3)CC2)cc1NC(=O)NCCN1CCCC1=O [Example 176, 1-[5-[4-(4-cyanophenyl)piperidine-1-carbonyl]-2-methyl-phenyl]-3-[2-(2-oxopyrrolidin-1-yl)ethyl]urea]
94.8%	COC(=O)[C@H](CNC(=O)Nc1cc(C(=O)N2CCC(c3ccc(C#N)cc3)CC2)ccc1C)NC(=O)OC(C)(C)C [Example 177, Methyl (2S)-3-[[5-[4-(4-cyanophenyl)piperidine-1-carbonyl]-2-methyl-phenyl]carbamoylamino]-2-[(2-methylpropan-2-yl)oxycarbonylamino]propanoate]
95.9%	Cc1ccc(C(=O)N2CCC(c3ccc(C#N)cc3)CC2)cc1NC(=O)NCCCN1CCCCCC1=O [Example 178, 1-[5-[4-(4-cyanophenyl)piperidine-1-carbonyl]-2-methyl-phenyl]-3-[3-(2-oxoazepan-1-yl)propyl]urea]
89.2%	CNC(=O)CCNC(=O)Nc1cc(C(=O)N2CCC(c3ccc(C#N)cc3)CC2)ccc1C [Example 179, 3-[[5-[4-(4-cyanophenyl)piperidine-1-carbonyl]-2-methyl-phenyl]carbamoylamino]-N-methyl-propanamide]
92%	Cc1ccc(C(=O)N2CCC(c3ccc(C#N)cc3)CC2)cc1NC(=O)N[C@@H](CCS(C)(=O)=O)C(=O)OC(C)(C)C [Example 180, tert-butyl (2S)-2-[[5-[4-(4-cyanophenyl)piperidine-1-carbonyl]-2-methyl-phenyl]carbamoylamino]-4-methylsulfonyl-butanoate]
93.1%	COC(=O)C1CCC(NC(=O)Nc2cc(C(=O)N3CCC(c4ccc(C#N)cc4)CC3)ccc2C)CC1 (stereo not shown) [Example 181, Methyl 4-[[5-[4-(4-cyanophenyl)piperidine-1-carbonyl]-2-methyl-phenyl]carbamoylamino]cyclohexane-1-carboxylate]
96.2%	Cc1ccc(C(=O)N2CCC(c3ccc(C#N)cc3)CC2)cc1NC(=O)NC(C)CO (stereo not shown) [Example 182, 1-[5-[4-(4-cyanophenyl)piperidine-1-carbonyl]-2-methyl-phenyl]-3-(1-hydroxypropan-2-yl)urea]
89.6%	Cc1ccc(C(=O)N2CCC(c3ccc(C#N)cc3)CC2)cc1NC(=O)NCC(C)O (stereo not shown) [Example 183, 1-[5-[4-(4-cyanophenyl)piperidine-1-carbonyl]-2-methyl-phenyl]-3-(2-hydroxypropyl)urea]
81.7%	Cc1ccc(C(=O)N2CCC(c3ccc(C#N)cc3)CC2)cc1NC(=O)NCC(O)CO (stereo not shown) [Example 184, 1-[5-[4-(4-cyanophenyl)piperidine-1-carbonyl]-2-methyl-phenyl]-3-(2,3-dihydroxypropyl)urea]
